Assay results reported in US10376456B2, “Concentrated and self-preserving compositions of mild surfactants for transparent and skin-pH personal care formulations” (GALAXY SURFACTANTS LTD., priority 2015, dated 2019).

Columns and labels:
subject's volar arm = test: Corneometry analysis of skin hydration after repeated application of body-wash; type: in vivo; settings: body-wash 12% active matter, 2% PEG-150 distearate, twice a day for fifteen days, 50% RH, 20° C.
Description: Removal of Natural Moisturizing Factor (NMF) from stratum corneum during cleansing leads to a lower capacitance reading since there is less secondary bound water in the skin's corneocytes. […] The corneometer findings are consistent with the TEWL findings.

[1] = Critical micelle concentration (CMC); type: physicochemical
Description: It is well established that in case of surfactants, lower the CMC value, milder the surfactants. Ionic surfactant molecules interact with proteins through charge-charge interaction since the charge density on the head group is high. Whenever aggregates are formed the charge density of micelle is much lesser as the charge gets spread over the large micelle. […] It can be seen from Table 2 that CMC of anionic sodium lauryl sulphate (SLS) is the highest and zwitterionic (electrically neutral) cocoamidopropyl (CAPB) is the lowest.

In the case of “Sodium lauryl ether sulfate [sodium lauryl ether sulphate (2 EO)]”, the “Skin moisture level (corneometry)” value (subject's volar arm) is reported as “dry the stratum corneum”.
Compound Cocoamidopropyl betaine [CAPB] has a CMC [1] of 0.06 mM/liter.
In the case of sodium cocoyl glycinate, the CMC [1] is reported as 1.01 mM/liter.
Compound Sodium cocoyl isethionate has a CMC [1] of 0.14 mM/liter.
With `CCCCCCCCCCCCOS(=O)(=O)[O-].[Na+]` [SLS, sodium lauryl sulfate] the CMC [1] was 5.90 mM/liter.
